Legend:
[1] = biological target: T1, human MAGL enzyme (Homo sapiens, UniProt Q99685); experiment: MAGL in vitro activity assay (7-HCA substrate, fluorescence); type: biochemical; settings: human MAGL pre-treated 30 min at room temperature, 7-HCA substrate 1 h; read-out: IC50, inhibition of MAGL activity in vitro
T1 sequence (Q99685 1-303): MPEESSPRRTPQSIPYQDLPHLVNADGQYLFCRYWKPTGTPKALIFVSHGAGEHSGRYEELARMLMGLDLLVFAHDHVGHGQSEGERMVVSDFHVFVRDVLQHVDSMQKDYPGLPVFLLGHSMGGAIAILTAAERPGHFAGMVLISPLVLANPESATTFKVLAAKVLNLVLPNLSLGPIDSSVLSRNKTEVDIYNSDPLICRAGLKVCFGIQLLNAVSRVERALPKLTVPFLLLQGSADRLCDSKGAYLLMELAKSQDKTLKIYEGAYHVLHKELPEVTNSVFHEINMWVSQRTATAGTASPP
Experimental: MAGL in vitro activity assay. The MAGL in vitro activity assay was performed based on a reported protocol. Briefly, human MAGL enzyme was pre-treated with compounds at room temperature for 30 min, and subsequently incubated with 7-hydroxycoumarinyl arachidonate (7-HCA) as a substrate at room temperature for 1 h. The fluorescence signals were measured on an Envision plate reader (excitation 355 nm, emission 460 nm).

[2] = biological target: T2, endogenous MAGL (Homo sapiens, UniProt Q99685); experiment: Labeling of endogenous MAGL in live cells, gel-based ABPP with TCO-TAMRA; type: cell-based; settings: human brain vascular pericytes, probe 1 h, 2 μM TCO-TAMRA 30 min
T2 sequence (Q99685 1-303): T1 sequence (Q99685 1-303)
Experimental: Cell culture and probe treatment. Human brain vascular pericytes were cultured in Dulbecco's Modified Eagle Medium/Nutrient Mixture F-12 (DMEM/F-12) GlutaMAX media supplemented with 5% heat-inactivated fetal bovine serum (HI FBS), 1× pericyte growth supplement (PGS), and 1× penicillin-streptomycin at 37° C. with 5% CO2 in a humidified environment. Probe treatment was performed in duplicates. Cells were plated in 6-well plates and cultured overnight in growth media. Live cells were then treated with 300 nM KML29 as a competitor compound (or DMSO as a control) at 37° C. for 1 h. Cells were subsequently treated with probe 9 (0.3 nM-3.2 μM) at 37° C. for 1 h (cells pre-treated with KML29 were treated with 32 nM of probe 9), after which the cells were washed with fresh growth media. The media were then placed with fresh media containing 2 μM of TCO-TAMRA, and the cells were incubated at 37° C. for 30 min. To quench the reaction, the media were replaced with PBS containing 100 μM tetrazine amine, and the cells were washed with cold PBS and harvested with a scrapper. The suspensions were centrifuged at 10,000×g for 1 min at 37° C., and the cell pellets were lysed in PBS containing 0.25% sodium dodecyl sulfate (SDS) with sonication. The protein concentration was measured with a bicinchoninic acid (BCA) assay kit (Thermo Scientific) and normalized. In-gel fluorescence and data analysis. The proteomes were analyzed with 1.0 mm thick 4-12% bis-tris 15-well protein gels in 2-(N-morpholino)ethanesulfonic acid (MES) buffer. The gels were scanned with a Typhoon FLA 9500 Biomolecular Imager (GE Healthcare) with the TAMRA channel with 532 nm excitation and a 575 nm long pass emission filter. To measure the total protein loading, the gels were treated with ClearPage Instant Blue (CBS Scientific) overnight, and after brief destaining with water, scanned with an Odyssey Imager (Li-COR) at the 700 nm channel. The in-gel fluorescence images were processed with ImageJ software (v1.47, NIH), and the intensities were quantified with Image Studio (v5.2, Li-COR) with background subtraction. The coomassie images were processed and quantified with the Image Studio software with background subtraction. For analysis of the cellular potency, the in-gel fluorescence intensities of the two MAGL bands were averaged, normalized with the total coomassie intensity of the corresponding sample, and fitted with a dose-response equation with Prism v7.02 (GraphPad). […] The media were then placed with fresh media containing 2 μM of TCO-TAMRA, and the cells were incubated at 37° C. for 30 min. […] The protein concentration was measured with a bicinchoninic acid (BCA) assay kit (Thermo Scientific) and normalized. In-gel fluorescence and data analysis. […]

[3] = tested on: MAGL; experiment: Cellular labeling kinetics of TCO-TAMRA with MAGL probes in live human brain vascular pericytes; type: cell-based; settings: for extent of MAGL labeling at the probe concentration used: 100c 1 μM or 12 32 nM, 37° C., 1 h
Experimental: To measure the cellular labeling kinetics of TCO-TAMRA with 100c and 12, live cells were treated with 100c (1 μM) or 12 (32 nM) at 37° C. for 1 h. […] Subsequently, the cells were washed with fresh growth media, which were placed with fresh media containing 50 nM, 200 nM, or 2 μM of TCO-TAMRA, and the cells were incubated at 37° C. for 2, 5, 10, 15, 20, 30, and 60 min. To quench the reaction, the media were replaced with PBS containing 100 μM tetrazine amine, and the cells were washed with cold PBS and harvested with a scrapper.
The suspensions were centrifuged at 10,000×g for 1 min at 37° C., and the cell pellets were lysed in PBS containing 0.25% sodium dodecyl sulfate (SDS) with sonication. The protein concentration was measured with a bicinchoninic acid (BCA) assay kit (Thermo Scientific) and normalized.
In-gel fluorescence and data analysis. Same procedure as described in Example 17 was used.

[4] = Stopped-flow kinetic analysis of MAGL tetrazines with eq-5-hydroxy-trans-cyclooctene in MeOH at 25° C.; settings: for kobs: 0.04 mM tetrazine, 0.40 mM trans-cyclooctene, MeOH; for kobs / krel: 25° C.; for krel: relative to 12, MeOH
Experimental: Solutions (3 mL) of tetrazines 100a, 100b, 100c and 12 (0.080 mM) was prepared in MeOH. Solutions (3 mL) of eq-5-hydroxy-trans-cyclooctene (0.80 mM) were prepared in MeOH. The reactions between tetrazines and trans-cyclooctene were measured under pseudo-first order conditions using SX 18MV-R stopped-flow spectrophotometer (Applied Photophysics Ltd.). Each solution of tetrazine and trans-cyclooctene were injected in equal volumes via 3 mL syringes into the stopped-flow instrument at 25° C., resulting in final concentration of 0.04 mM of tetrazines and 0.40 mM trans-cyclooctene. The reaction was monitored by the decay of absorbance associated with the tetrazines (10a and 10b at 300 nm, 10c at 280 nm). Reaction were repeated in triplicate. With Prism software, an observed rate constant, kobs, was obtained by nonlinear regression.

[5] = Stopped-flow kinetic analysis of tetrazines with eq-5-hydroxy-trans-cyclooctene in PBS buffer at 25° C.; settings: for k2, second order rate constant / kobs: PBS pH 7.4, 25° C.; for k2, second order rate constant: linear regression of kobs; for kobs: 0.025 mM tetrazine; for krel: relative to 5b, PBS, 25° C.
Experimental: Solutions (5 mL) of tetrazines 5b, 6c, 5l, 6a and 4f (0.050 mM) were prepared in PBS buffer (pH 7.4). Solutions (10 mL) of eq-5-hydroxy-trans-cyclooctene (0.50, 0.60, 0.70, 0.80 mM) were prepared in PBS buffer (pH 7.4). The reactions between tetrazines and trans-cyclooctene were measured under pseudo-first order conditions using SX 18MV-R stopped-flow spectrophotometer (Applied Photophysics Ltd.). Each solution of tetrazine and trans-cyclooctene were injected in equal volumes via 3 mL syringes into the stopped-flow instrument at 25° C., resulting in final concentration of 0.025 mM of tetrazines and 0.25, 0.30, 0.35, 0.40 mM trans-cyclooctene. The reaction was monitored by the decay of absorbance associated with the tetrazines (5b at 263 nm, 6c at 268 nm, 5l at 274 nm, 6a at 296 nm, 4f at 266 nm). Reaction were repeated in triplicate. With Prism software, an observed rate constant, kobs, was obtained by nonlinear regression. Second order rate constants, k2, were calculated by linear regression between kobs and final concentration of trans-cyclooctene.

[6] = Tetrazine stability in PBS buffer in ambient light at 25° C.; type: physicochemical; settings: PBS buffer pH 7.4, ambient light, day 0-5
Experimental: Solutions (3 mL) of tetrazine 5b, 5l and 6c (400 μM) were prepared in PBS buffer (pH 7.4) in vials and stored in ambient light at 25° C. Tetrazine concentrations were determined by recording the absorbance at 518 nm (6c) and 520 nm (5b and 5l) in cuvettes in day 0, 1, 3 and 5. A solution of 6a (50 μM) was prepared in PBS buffer (pH 7.4) in vials and stored in ambient light at room temperature. Tetrazine concentration was determined by recording the absorbance at 520 nm in cuvettes at day 0, 1, 3 and 5.

[7] = Tetrazine stability in Opti-MEM media in ambient light at 25° C.; type: physicochemical; settings: 400 μM
Experimental: Solutions (10 mL) of tetrazine 5b and 6c (400 μM) were prepared in Opti-MEM media in vials and stored in ambient light at 25° C. 2 mL of solution was extracted by 2 mL of Et2O in different time point. Tetrazine concentrations were determined by recording the absorbance of Et2O at 545 nm.

[8] = Experimental log P; type: physicochemical
[9] = 30° C. to 400/500° C. at 5° C./min
Experimental: DSC data was obtained on a Mettler-Toledo Differential Scanning Calorimeter 3+. Samples were loaded into a goldplated high-pressure pan, held at 30° C. for 10 minutes, then a gradient of 30° C. to 400/500° C. at 5° C./min.

decomposition per day [6] | decomposition per day [7] | logP [8] | SMILES | extent of MAGL labeling at the probe concentration used [3] | kobs [4] | krel [4] | k2, second order rate constant [5] | kobs ([5]; TCO 0.25 mM) | kobs ([5]; TCO 0.30 mM) | kobs ([5]; TCO 0.35 mM) | kobs ([5]; TCO 0.40 mM) | krel [5] | also measured
– | – | – | O=C(OC(C(F)(F)F)C(F)(F)F)N1CCC(CNS(=O)(=O)c2ccc(-c3nncnn3)cc2)CC1 [100c, 1,1,1,3,3,3-hexafluoropropan-2-yl 4-((4-(1,2,4,5-tetrazin-3-yl)phenylsulfonamido)methyl)piperidine-1-carboxylate] | full labeling of MAGL | 0.2011 s⁻¹ | 162 | – | – | – | – | – | – | IC50 [1]: 16 nM; labeling of MAGL by gel-based ABPP [2]: strong labeling of MAGL; time at which labeling was complete ([3]; 100c 1 μM 1 h, then 2 μM TCO-TAMRA, first data point): ≤ 2 min; times more reactive than 100b ([4]; stopped flow kinetics with 5-hydroxyTCO): 6.5 times
– | – | – | Cc1nnc(-c2ccc(-n3ccc(C4CCN(C(=O)OC(C(F)(F)F)C(F)(F)F)CC4)n3)cc2)nn1 [compound 12, reference compound] | full labeling of MAGL | 0.001244 s⁻¹ | 1 | – | – | – | – | – | – | –
1.8% | 6.7% | 2.2 | COC(=O)CCc1nnc(-c2ccccc2)nn1 [5b, methyl 3-(6-phenyl-1,2,4,5-tetrazin-3-yl)propanoate] | – | – | – | 197.9 ± 13.36 M⁻¹ s⁻¹ | 0.57 s⁻¹ | 0.065 s⁻¹ | 0.075 s⁻¹ | 0.87 s⁻¹ | 1.0 | –
3.9% | 10.8% | 0.89 | C=C(OCC)c1nnc(CCC(=O)OC)nn1 [6c, methyl 3-(6-(1-ethoxyvinyl)-1,2,4,5-tetrazin-3-yl)propanoate] | – | – | – | 833 ± 35.7 M⁻¹ s⁻¹ | 0.20 s⁻¹ | 0.24 s⁻¹ | 0.28 s⁻¹ | 0.33 s⁻¹ | 4.2 | times faster than 5b ([5]; reaction with 5-hydroxyTCO): 4.2 times
– | – | – | Cc1nnc(SCc2ccc(-c3ccccc3)cc2)nn1 [b-Tz, 3-([1,1′-biphenyl]-4-ylmethylthio)-6-methyl-1,2,4,5-tetrazine] | – | – | – | – | – | – | – | – | – | DSC onset temperature [9]: 170 °C; DSC transition enthalpy [9]: 900 J/g
